In US7678884B2, “Biologically active peptide and agent containing the same” (Seikagaku Corporation, priority 2003, dated 2010):
Ends that are not written are not given here.

Key:
MC3T3 cells [1] = test: Cell growth of MC3T3 cells (cell number); assay type: cell-based, mouse; details: αMEM containing 2% FBS; on Day 6; versus control (FIG. 3)
Description: (§1) As mouse-derived osteoblasts, cells of the MC3T3 cell strain or ST2 cell strain (purchased from Riken Cell Bank) were used. • (iii) Rat Femur Bone Marrow-derived Mesenchymal Stem Cells (BMMSC)
The PDL cells prepared in (1) were inoculated on a 24-well culture plate (FALCON) at a ratio of 5×10^3 cells/well. After the inoculation, the cells were cultured in DMEM containing 10% FBS for 1 day. On Day 0, next day of the inoculation, the peptide (a) prepared above was added to a culture medium (DMEM containing 2% FBS) at various concentrations. On Days 4 and 6, the cells were separated and dispersed by using PBS containing 0.08% trypsin and 0.04% ethylenediaminetetraacetic acid (EDTA), and cell number was counted by using a Coulter counter (COULTER Z1, Coulter Electronics).
Further, the peptides (a) and (b) were similarly examined for cell growth promoting effect on the MC3T3 cells. […] The symbol “cont” in FIG. 3 indicates the results for the cells cultured in αMEM containing 2% FBS alone, “B” indicates the results for the cells cultured in the medium added only with BMP2 (bone morphogenetic protein 2, Yamanouchi Pharmaceutical Co., Ltd.), “HN” indicates the results for the cells cultured in the medium added only with the peptide (b), and “PN” indicates the results for the cells cultured in the medium added with only the peptide (a). […]

[2] = system: Rat femur bone marrow-derived mesenchymal stem cells (BMMSC); test: Cell differentiation of BMMSC cells (ALP activity); assay type: cell-based; details: for cell differentiation promoting effect on BMSSC cells relative to BMP2: at confluent state (FIG. 8), comparison with BMP2; for cell differentiation promoting effect (ALP activity) on BMSSC cells: at confluent state, αMEM containing 2% FBS (FIG. 8)
From the text: Rat femur bone marrow-derived mesenchymal stem cells (BMMSC) were used. The cell strain of the cells was obtained according to the method of Maniatopoulos et al. (Maniatopoulos C, Sodek J and Melcher A H, Bone formation in vitro by stromal cells obtained from bone marrow of young adult rats, Cell Tissue Res., 254: 317-330, 1988). The femur was aseptically extracted, and surrounding soft tissue was removed as far as possible. The mesiodistal epiphysis of the femur was cut off, and the femur marrow tissue in 5 ml of 15S-containing minimum essential medium alpha medium (αMEM, GIBCO) was injected into 10 ml of the same culture broth by using a syringe. The obtained tissue was cultured in the 15S-containing αMEM at 37° C., and the 3rd to 5th generation cells were used for experiments. • (iv) Mouse-derived Cementoblasts
(§2) As an index of cell differentiation, alkaline phosphatase (ALP) activity of cells was determined. Cells were inoculated in a 24-well culture plate at a ratio of 5×10^3 cells/well, added with the peptide (a) at various concentrations and cultured in DMEM or αMEM containing 2% FBS. One week after the time point when the cells reached a confluent state, ALP activity was determined by the following enzymochemical method (Bessey-Lowry method, Bessey O A, Lowry O H and Brock M J, A method for the rapid determination of alkaline phosphatase with five cubic millimeter of serum, J. Biol. Chem., 164:321-329, 1946).
(§3) The cultured cells were washed with PBS and then disrupted in 10 mM Tris-HCl buffer (pH 7.4, 500 μl) for 40 seconds by using an ultrasonic homogenizer (Handy Sonic model UR-20P, Tomy Seiko) and stirred. Then, 25 μl of this sample liquid was added to 125 μl of ALP buffer (0.1 M carbonate buffer, pH 9.8, 6.7 mM p-nitrophenyl phosphate, 2 mM MgCl2) and incubated at 37° C. for 30 minutes. The reaction was terminated by addition of 125 μl of 0.2 N NaOH, and absorbance was measured at 405 nm by using a microplate reader (Model 550, Bio-Rad Laboratories).
Further, the peptides (a) and (b) and BMP2 were similarly examined by using the ST2 cells and BMMSC cells. The symbol “cont” in the figures indicates the results for the cells cultured in αMEM containing 2% FBS alone, “B” indicates the results for the cells cultured in the medium added only with BMP2, “HN” indicates the results for the cells cultured in the medium added only with the peptide (b), and “PN” indicates the results for the cells cultured in the medium added only with the peptide (a). In the figures, the unit of numerical values shown after “B,” “HN” and “PN” is “ng/ml.”

MC3T3 cells [3] = test: Cell differentiation of MC3T3 cells (ALP activity); assay type: cell-based, mouse; details: for cell differentiation promoting effect (ALP activity) on MC3T3 cells: at confluent state and one week after (FIG. 9, FIG. 10)
Description: as §1, §2, §3
Further, the peptides (a) and (b) were similarly examined by using the MC3T3 cells. ALP activity determined when the cells reached a confluent state is shown in FIG. 9, and ALP activity determined one week after the confluent state was attained is shown in FIG. 10. The symbol “cont” in the figures indicates the results for the cells cultured in αMEM containing 2% FBS alone, “PN” indicates the results for the cells cultured in the medium added only with the peptide (a), and “HN” indicates the results for the cells cultured in the medium added only with the peptide (b). Further, “ng” in the figures represents “ng/ml.” […]

bone loss model = test: Bone loss model (tibia defect, soft X-ray); assay type: in vivo, Wistar rats; details: for bone regeneration at the bone loss site (X-ray): peptide 3 mg/ml with collagen gel (Koken Atelocollagen Implant), versus control and collagen gel groups
Description: The following experiment was performed in order to examine action of the peptide of the present invention on a bone loss model. • (i) Preparation of Bone Loss Model Male Wistar rats (8-week old) were systemically anesthetized with an ethyl carbamate solution in a volume of 0.5 ml per 100 g of body weight, then the skin of the right and left hind leg tibiae and the periostium of tibiae were incised, and the periostium were reflected to expose the tibiae. Then, a hole having a diameter of 2 mm was perforated in the cortical bone at the same site by using a round bur under pouring physiological saline to form a defect reaching the medullary cavity (diameter: 2 mm, depth: 3 mm). • (ii) Test Method The bone loss site was filled with the peptide (a) (concentration: 0.3 mg/ml or 3 mg/ml) dissolved in a sodium hyaluronate preparation (trade name: ARTZ (registered trade mark), weight average molecular weight of sodium hyaluronate: about 900,000, concentration of sodium hyaluronate: 1%), and the periost and the skin were repositioned and sutured. Healing conditions of the animals 3 weeks after the operation in a group of animals filled with the peptide (peptide group), a group of animals applied with 1% PBS solution of sodium hyaluronate as a vehicle alone (HA group) and a group of animals applied with no substance before the suture of the skin periosteal flap (control group) were examined by using X-ray. • (iii) Results In a similar manner, experiments were performed with collagen gel (trade name: Koken Atelocollagen Implant, Koken) and the peptides (a) and (b) (concentration: 3 mg/ml).

Sequence	MC3T3 cell number (cell growth promoting effect) (MC3T3 cells [1])	cell differentiation promoting effect on BMSSC cells relative to BMP2 [2]	cell differentiation promoting effect (ALP activity) on BMSSC cells [2]	cell differentiation promoting effect (ALP activity) on MC3T3 cells (MC3T3 cells [3])	bone regeneration at the bone loss site (X-ray) (bone loss model)	bone regeneration at the bone loss site (soft X-ray images) (bone loss model; peptide (a) 0.3 mg/ml or 3 mg/ml in 1% sodium hyaluronate preparation (ARTZ), 3 weeks after operation, versus control and HA groups)	cell differentiation promoting effect (ALP activity) on the MC3T3 cell strain (MC3T3 cells [3]; final concentration of 100 ng/ml, versus control (FIG. 12))
VPAFPRQPGTPGVASL [Peptide (a)]	significantly increased	comparable to or higher than that of BMP2	significant cell differentiation promoting effect	significant cell differentiation promoting effect	bone had been regenerated to such an extent that bone loss could hardly be recognized	bone had been regenerated to such an extent that bone loss could hardly be recognized	–
VPFFPQQSGTPGMASL [Peptide (b), peptide designed on the portion of human-derived sheathlin protein corresponding to (a)]	significantly increased	comparable to or higher than that of BMP2	significant cell differentiation promoting effect	significant cell differentiation promoting effect	bone had been regenerated to such an extent that bone loss could hardly be recognized	–	high cell differentiation promoting effect
